Test results from publication PMC7849011, “Defining the Antimalarial Activity of Cipargamin in Healthy Volunteers Experimentally Infected with Blood-Stage Plasmodium falciparum” (Antimicrobial Agents and Chemotherapy, 2021).
≈ marks a conversion by molar mass, not a printed value. Where “and” joins values, the source holds several entries; their conditions need not be identical. Equal entries are not always repeated. Entries after “also recorded” stand apart in the source; their conditions may differ. Where two headings read alike, the source gives them in different places.

Experiments:
[1] = cited from earlier work
Plasmodium falciparum = details: cited from earlier work
clinical = details: human, in vivo, 10 mg
Procedure: Blood samples were collected at the following time points after dosing to determine the cipargamin plasma concentration: 1, 2, 3, 4, 8, 12, 16, 24, 36, 48, 72, 96, and 120 h. Samples were analyzed by liquid chromatography-tandem mass spectrometry as previously described ([8]). Noncompartmental PK analysis was performed using WinNonlin Pro version 6.4.

[2] = test system: P. falciparum gametocytes; assay: Direct membrane feeding assay (DMFA), transmission to Anopheles stephensi mosquitoes; assay type: in vivo, Plasmodium falciparum; details: blood collected 20 days after cipargamin dosing
Procedure: The transmission of parasites from subjects to female Anopheles stephensi mosquitoes was measured using a direct membrane feeding assay (DMFA) as previously described ([23]). Briefly, ∼100 mosquitoes (3 to 7 days old) were allowed to feed on a water-jacketed membrane feeder filled with venous blood collected 20 days after cipargamin dosing into lithium heparin anticoagulant tubes. Seven to 9 days after blood feeding, mosquitoes were dissected to detect oocysts in midgut preparations using qPCR targeting the gene encoding 18S rRNA.

[3] = Safety assessment (adverse events, clinical laboratory, ECG); assay type: in vivo, human
Procedure: Safety assessments were performed throughout the study from screening and included adverse event reporting, physical examination, vital signs, clinical laboratory evaluation (hematology, biochemistry, and urinalysis), electrocardiography (ECG), and malaria clinical score recording. The malaria clinical score served as a clinical indication of the severity of the induced malaria infection; 14 signs and symptoms commonly associated with malaria were graded using a 3-point scale (0 = absent, 1 = mild, 2 = moderate, and 3 = severe), and the values were summed in order to generate an overall score (with a maximum possible score of 42). The severity of AEs was graded in accordance with the Common Terminology Criteria for Adverse Events, version 4.03 (https://evs.nci.nih.gov/ftp1/CTCAE/CTCAE_4.03/CTCAE_4.03_2010-06-14_QuickReference_5x7.pdf).

P. falciparum = details: cited from earlier work
P. vivax = test system: P. vivax; set-up: method as in PMID 25075833; details: 30 mg per day for 3 days, P. vivax malaria patients; cited from earlier work
Plasmodium berghei = test system: Plasmodium berghei; set-up: method as in PMID 25114127, PMID 25487807; details: human PK data with preclinical PK/PD analysis; cited from earlier work
[4] = 25 P. falciparum patients, single doses of 10, 15, 20 or 30 mg
[5] = P. falciparum patient, day 6, not considered related
[6] = P. vivax patient, day 9, 30 mg per day for 3 days

C[C@H]1Cc2c([nH]c3cc(Cl)c(F)cc23)[C@@]2(N1)C(=O)Nc1ccc(Cl)cc12 [cipargamin]
AUC0–∞ ([1]; 10 mg, patients with naturally acquired malaria): 6400 ng·h/mL | LFT abnormalities ([1]; 30 mg per day for 3 days, 11 P. falciparum and 10 P. vivax patients): three subjects displayed LFT abnormalities | patients with increased ALT [1, 4]: only one patient displayed increased ALT | patients with increased blood alkaline phosphatase [1, 4]: 40% | subjects with hyperbilirubinemia [1, 4]: 20% | increased ALT [1, 5]: 192 U/liter | increased AST [1, 5]: 121 U/liter | peak ALT [1, 6]: 241 U/liter | peak AST [1, 6]: 106 U/liter | peak ALT ([1]; other P. vivax patient, day 6): 78 U/liter | peak AST ([1]; other P. vivax patient, day 6): 63 U/liter | patients with asymptomatic transient ALT elevations (>3 × ULN) ([1]; single 75-mg dose, cohort of 11 P. falciparum patients, ref unpublished, NCT01860989): four patients had asymptomatic transient ALT elevations | in vitro activity against P. falciparum stages (Plasmodium falciparum): active against both asexual and sexual stages | inhibition of early- and late-stage gametocyte development in vitro (Plasmodium falciparum): potent inhibitor | inhibition of oocyst development in vitro (Plasmodium falciparum): potent inhibition | drug exposure (AUC0–∞) in IBSM subjects, fold lower than in patients with naturally acquired malaria (clinical): around 3 fold | AUC(0-inf) (clinical; po): 1950 ± 753 ng·h/mL | CL/F, mean ± SD (% CV) (clinical; po): 5.72 ± 1.93 (33.7) liters/h | Cmax (clinical; po): 101 ± 18.3 ng/mL | Tmax (clinical; po): 2 h | Vd/F (clinical; po): 209 ± 54.5 L | AUC(0-t) (clinical; po, AUC0–24 h, mean ± SD (% CV)): 1010 ± 242 ng·h/mL | AUC(0-t) (clinical; po, AUC0–last, mean ± SD (% CV)): 1850 ± 690 ng·h/mL | half-life (clinical; po, t1/2 (elimination half-life), mean ± SD (% CV)): ~26 h | transmission to mosquitoes (oocysts in midgut by qPCR) [2]: did not transmit to mosquitoes; also recorded: could not be detected; also recorded: not observed | Abdominal discomfort ([3]; 10 mg, N=8): 4 (50.0) n (%) | Alanine aminotransferase increased ([3]; 10 mg, N=8): 2 (25.0) n (%) | Arthralgia ([3]; 10 mg, N=8): 2 (25.0) n (%) | Aspartate aminotransferase increased ([3]; 10 mg, N=8): 1 (12.5) n (%) | Cardiac disorders (system organ class) ([3]; 10 mg, N=8): 1 (12.5) n (%) | Chills ([3]; 10 mg, N=8): 3 (37.5) n (%) | Decreased appetite ([3]; 10 mg, N=8): 3 (37.5) n (%) | Diarrhoea ([3]; 10 mg, N=8): 2 (25.0) n (%) | Drug-induced liver injury ([3]; 10 mg, N=8): 1 (12.5) n (%) | Eye disorders (system organ class) ([3]; 10 mg, N=8): 1 (12.5) n (%) | Gamma-glutamyltransferase increased ([3]; 10 mg, N=8): 2 (25.0) n (%) | Gastrointestinal disorders (system organ class) ([3]; 10 mg, N=8): 5 (62.5) n (%) | General disorders and administration site conditions (system organ class) ([3]; 10 mg, N=8): 6 (75.0) n (%) | Haemoptysis ([3]; 10 mg, N=8): 1 (12.5) n (%) | Head discomfort ([3]; 10 mg, N=8): 1 (12.5) n (%) | Headache ([3]; 10 mg, N=8): 5 (62.5) n (%) and 5 n (%) | Hepatobiliary disorders (system organ class) ([3]; 10 mg, N=8): 1 (12.5) n (%) | Hyperhidrosis ([3]; 10 mg, N=8): 3 (37.5) n (%) | Investigations (system organ class) ([3]; 10 mg, N=8): 3 (37.5) n (%) | Lethargy ([3]; 10 mg, N=8): 4 (50.0) n (%) | Liver function test abnormal ([3]; 10 mg, N=8): 1 (12.5) n (%) | Liver tenderness ([3]; 10 mg, N=8): 1 (12.5) n (%) | Malaise ([3]; 10 mg, N=8): 4 (50.0) n (%) | Metabolism and nutrition disorders (system organ class) ([3]; 10 mg, N=8): 3 (37.5) n (%) | Musculoskeletal and connective tissue disorders (system organ class) ([3]; 10 mg, N=8): 5 (62.5) n (%) | Myalgia ([3]; 10 mg, N=8): 5 (62.5) n (%) and 5 n (%) | Nausea ([3]; 10 mg, N=8): 1 (12.5) n (%) | Neck pain ([3]; 10 mg, N=8): 1 (12.5) n (%) | Nervous system disorders (system organ class) ([3]; 10 mg, N=8): 6 (75.0) n (%) | Non-cardiac chest pain ([3]; 10 mg, N=8): 1 (12.5) n (%) | Photophobia ([3]; 10 mg, N=8): 1 (12.5) n (%) | Pyrexia ([3]; 10 mg, N=8): 6 (75.0) n (%) and 6 n (%) | Rales ([3]; 10 mg, N=8): 1 (12.5) n (%) | Rash ([3]; 10 mg, N=8): 1 (12.5) n (%) | Respiratory, thoracic and mediastinal disorders (system organ class) ([3]; 10 mg, N=8): 3 (37.5) n (%) | Rhinorrhoea ([3]; 10 mg, N=8): 1 (12.5) n (%) | Skin and subcutaneous tissue disorders (system organ class) ([3]; 10 mg, N=8): 4 (50.0) n (%) | Subjects with at least one adverse event ([3]; 10 mg, N=8): 8 (100) n (%) | Tachycardia ([3]; 10 mg, N=8): 1 (12.5) n (%) | Urticaria ([3]; 10 mg, N=8): 1 (12.5) n (%) | AEs leading to discontinuation: No. (%) of subjects ([3]; 10 mg, 8 subjects): 0 (0) | AEs leading to discontinuation: No. of AEs ([3]; 10 mg, 8 subjects): 0 | AEs mild in severity, of all AEs ([3]; 10 mg, 8 subjects): 68/89 | Any AEs, cipargamin related: No. (%) of subjects ([3]; 10 mg, 8 subjects): 4 (50.0) | Any AEs, cipargamin related: No. of AEs ([3]; 10 mg, 8 subjects): 10 | Any AEs: No. (%) of subjects with at least 1 AE ([3]; 10 mg, 8 subjects): 8 (100) | Any AEs: No. of AEs ([3]; 10 mg, 8 subjects): 89 | Moderate AEs (grade 2), cipargamin related: No. (%) of subjects ([3]; 10 mg, 8 subjects): 2 (25.0) | Moderate AEs (grade 2), cipargamin related: No. of AEs ([3]; 10 mg, 8 subjects): 2 | Moderate AEs (grade 2): No. (%) of subjects ([3]; 10 mg, 8 subjects): 7 (87.5) | Moderate AEs (grade 2): No. of AEs ([3]; 10 mg, 8 subjects): 18 | SAEs: No. (%) of subjects ([3]; 10 mg, 8 subjects): 3 (37.5) | SAEs: No. of AEs ([3]; 10 mg, 8 subjects): 3 | Severe AEs (grade 3), cipargamin related: No. (%) of subjects ([3]; 10 mg, 8 subjects): 2 (25.0) | Severe AEs (grade 3), cipargamin related: No. of AEs ([3]; 10 mg, 8 subjects): 2 | Severe AEs (grade 3): No. (%) of subjects ([3]; 10 mg, 8 subjects): 2 (25.0) | Severe AEs (grade 3): No. of AEs ([3]; 10 mg, 8 subjects): 3 | hematology, urinalysis, or electrocardiogram (ECG) parameters ([3]; 10 mg, 8 subjects): no clinically significant abnormalities | maximum ALT, times ULN ([3]; subject 1): 5.2 × ULN | maximum AST ([3]; subject 1): 88 U/liter | maximum AST, times ULN ([3]; subject 1): 2.2 × ULN | maximum ALT ([3]; subject 1, onset 8 days after dosing): 208 U/liter | ALT ([3]; subject 3, 8 days after dosing): 187 U/liter | ALT, times ULN ([3]; subject 3, 8 days after dosing): 4.6 × ULN | AST ([3]; subject 3, 8 days after dosing): 106 U/liter | AST, times ULN ([3]; subject 3, 8 days after dosing): 2.6 × ULN | GGT ([3]; subject 3, 8 days after dosing): 215 U/liter | GGT, times ULN ([3]; subject 3, 8 days after dosing): 4.3 × ULN | bilirubin ([3]; subject 3, 8 days after dosing): 74 µmol/L | bilirubin, times ULN ([3]; subject 3, 8 days after dosing): 3.7 × ULN | conjugated bilirubin ([3]; subject 3, 8 days after dosing): 22 µmol/L | conjugated bilirubin, times ULN ([3]; subject 3, 8 days after dosing): 3.1 × ULN | peak ALT, times ULN ([3]; subject 8): 24.1 × ULN | peak AST ([3]; subject 8): 443 U/liter | peak AST, times ULN ([3]; subject 8): 11 × ULN | peak GGT ([3]; subject 8): 159 U/liter | peak GGT, times ULN ([3]; subject 8): 3.1 × ULN | peak ALT ([3]; subject 8, onset 11 days after dosing): 964 U/liter | parasite clearance half-life (P. falciparum; 10 mg single dose, patients with P. falciparum malaria): 4.35 h | parasite clearance half-life (P. falciparum; 30 mg per day for 3 days, P. falciparum malaria patients): 0.90 h | parasite clearance half-life (P. falciparum; 30 mg single dose (highest tested), phase 2a): 1.47 h | clearance of parasitemia in patients (P. falciparum; 3-day regimen of 30 mg daily, patients infected with P. falciparum or Plasmodium vivax, Thailand): demonstrated to clear parasitemia | MIC estimated in patients (P. falciparum; patients with P. falciparum malaria, doses 10, 15, 20 and 30 mg): 0.1 ng/mL (≈ 0.256 nM) | parasite clearance half-life (P. vivax): 0.95 h | daily dose predicted to be sufficient to clear parasitemia in malaria patients (Plasmodium berghei): 30 mg
